Tested on: sugarcane, variety RB 81-5156 (plant-cane)
Experiment: Evaluation of carfentrazone-ethyl as a sugarcane ripener (field trial, stems harvested 0-45 DAA; % POL, % BRIX, % PURITY)
Assay type: in vivo
Conditions: 250 g ai/ha, average of four replications
Description: The following example further illustrates the present invention, but, of course, should not be construed as in any way limiting its scope. The example includes a protocol for the evaluation of certain PPO-inhibiting compounds as ripeners on sugarcane crops, and sets forth certain data indicating the effectiveness of such compounds. Yield is measured in % POL, which is the percent saccharose content in the pressed broth or the cane. Purity and % BRIX (defined as total sugar content including glucose, fructose, saccharose and minerals) are also measures of crop yield, although the saccharose content is of primary concern.
The trial was performed on sugarcane, variety RB 81-5156 (plant-cane). The sugarcane was planted with spacing of 1.40 m between rows, using 30 kg/ha of N; 100 kg/ha of P2O5 and 80 gk/ha of K2O as basic fertilizers, complemented by a covering application of 30 kg/ha of N.
The application of ripeners was performed with pressurized back-pack sprayers, with flat fan nozzle 110.01. The flow was 65 l/ha and the pressure was 35 lb/in^2.
The experimental design used randomized plots with 6 treatments and 4 replications. The size of each experimental plot was 126 m^2 (6 spacing lines of 1.40 m per 15 m of length).
The climatic conditions at the time of the ripener applications were: average temperature of 27° C.; air relative humidity of 73%, wind speed of 4 km/hour.
One linear meter of stems was harvested in each experimental plot at 0 (zero), 15, 30 and 45 days after application (DAA) of the ripener. The sugar was extracted from these stems and submitted for GC and refractometer analysis of percent saccharose, glucose, fructose and minerals corresponding to % POL, % BRIX and % PURITY.
The results, shown as an average of four replications, were compared with results observed in the same trials with trinexapac-ethyl (Moddus).

## CCOC(=O)C1CC(=O)C(=C(O)C2CC2)C(=O)C1 (stereo not shown) [trinexapac-ethyl, reference compound]
0 DAA
  % BRIX in Pressed Broth of Sugarcane Crop after Application of Ripeners: 14.93%
  % POL in Pressed Broth of Sugarcane Crop after Application of Ripeners: 12.75%
  % POL in the Cane of Sugarcane Crop after Application of Ripeners: 11.35%
  % PURITY in Pressed Broth of Sugarcane Crop after Application of Ripeners: 81.53%
15 DAA
  % BRIX in Pressed Broth of Sugarcane Crop after Application of Ripeners: 15.15%
  % POL in Pressed Broth of Sugarcane Crop after Application of Ripeners: 14.25%
  % POL in the Cane of Sugarcane Crop after Application of Ripeners: 12.53%
  % PURITY in Pressed Broth of Sugarcane Crop after Application of Ripeners: 83.73%
30 DAA
  % BRIX in Pressed Broth of Sugarcane Crop after Application of Ripeners: 17.85%
  % POL in Pressed Broth of Sugarcane Crop after Application of Ripeners: 15.80%
  % POL in the Cane of Sugarcane Crop after Application of Ripeners: 13.45%
  % PURITY in Pressed Broth of Sugarcane Crop after Application of Ripeners: 85.15%
45 DAA
  % BRIX in Pressed Broth of Sugarcane Crop after Application of Ripeners: 18.45%
  % POL in Pressed Broth of Sugarcane Crop after Application of Ripeners: 15.75%
  % POL in the Cane of Sugarcane Crop after Application of Ripeners: 14.20%
  % PURITY in Pressed Broth of Sugarcane Crop after Application of Ripeners: 84.78%
